Consider 14 compounds from patent publication US5464820A, “Specific inhibitors of tissue kallikrein” (priority 1993, dated 1995).

The target in series [1] is T1, human urinary kallikrein (HUK) (Homo sapiens, UniProt P06870).
T1 construct: Human urinary kallikrein (HUK) was purified from human urine; from tissue
The experiment in a line: Inhibition of human urinary (tissue) kallikrein (KI). The series is classed as biochemical. As for the experimental part: Human urinary kallikrein (HUK) was purified from human urine. Briefly, urine was subjected to ultrafiltration to concentrate the protein components which were applied to approtinin-CH-Sepharose affinity columns. Active fractions from these columns were next applied to Sephadex G-100 gel filtration and collected as fractions. The pH of each fraction was determined immediately upon elution, and the fraction was neutralized by addition of 2.0 ml of 2M Tris-HCL buffer, pH 8.0. Porcine pancreatic 24-kallikrein (PPK), at 50 units/mg protein; 1.0 units hydrolyses 1.0 μM BAEE (benzoyl -L-arginine ethyl ester) to N-a-benzoyl-L-arginine/minute at pH 8.7 at 25° C., was purchased from Sigma Chemical Company (St. Louis, Mo.). […] All other enzymes were purchased from Sigma Chemical Company (St. Louis, Mo.).
Dixon plots were used for data reduction and for calculation of […].
(§1) Assay methods were based on the cleavage of chromogenic substrate S-2266 (D-Val-Leu-Arg-pNA) (Kabi; Charlotte, N.C.) by porcine pancreatic kallikrein (Sigma Chemical Company; St. Louis, Mo.) to yield an increase in absorbance at 405 nm. By changing the substrate and enzyme, the general method has been extended to measure the inhibition of human tissue kallikrein (HTK or human urinary kallikrein HUK), human plasma kallikrein (HPK), plasmin, and urokinase (UK). In all assays, the robot dilutes the inhibitor into a series of wells and adds substrate and buffer. Chromogenic reactions are started by the addition of enzyme. Changes in the absorbance at 405 nm in an array of wells were recorded. All manipulations were performed by the instrument from reservoirs containing substrate, inhibitor, diluent (water), buffer, or enzyme.

Series [2] has as its target human plasma kallikrein (HPK) (Homo sapiens, UniProt P03952). In words: Inhibition of human plasma kallikrein (KI). Type of series: biochemical.
Source text: as §1

Series [3] has as its target porcine pancreatic kallikrein (PPK) (Sus scrofa, UniProt P00752). In words: Inhibition of porcine pancreatic kallikrein, cleavage of chromogenic substrate S-2266 (KI). Type of series: biochemical.
The next series addresses T2, urokinase (UK) (Homo sapiens, UniProt P00749).
T2 construct: purchased Sigma Chemical Company (St. Louis, Mo.)
In words: Inhibition of urokinase (KI). The note with it: Table 7; read-out: K1 UK. The series is classed as biochemical.
Source text: as §1

The nature of series [4]: Measured lipophilicity (KO/W). The series is classed as physicochemical. The note with it: Table 2, measured lipophilicity, change relative to Gly analog. The text has this: Listed in Table 2 are KI values along with changes in volume (ΔV), measured lipophilicity (ΔKO/W), and calculated lipophilicity (ΔCLOGP). Some of the substrates containing a D-amino acid residue at P3 are rapidly hydrolyzed by tissue kallikrein. To overcome this problem, a new method was also used to determine KI (see Example 6).

[5] abbreviates: Table 4, Pro-X-Arg-Ser-Val-Gln, read-out: KI HUK.
The mark [6] stands for this setting: Table 4, Pro-X-Arg-Ser-Val-Gln, read-out: KI HPK.
The mark [7] stands for this setting: Table 4, Pro-X-Arg-Ser-Val-Gln, read-out: KI PPK.
Setting [8] is: Table 7, in mM, read-out: K1 HPK.
[9] abbreviates: Table 7, in mM, read-out: K1 PPK.

Like-named read-outs stand apart in the source and are kept apart here. Starred links: 1 amine or outer side, 2 acyl side, 3 side chain; linkers in the order of their positions; H or OH if unused. Non-standard residues stand in square brackets, D forms with d. Residues, ends and D or L forms follow the SMILES beside them. X3 = O=C([C@H](N[*:1])C12CC3CC(CC(C3)C1)C2)[*:2]; Phe(4-NH2) = Nc1ccc(C[C@H](N)C(=O)O)cc1; 1Nal = N[C@@H](Cc1cccc2ccccc12)C(=O)O; 2Nal = N[C@@H](Cc1ccc2ccccc2c1)C(=O)O; X2 = CCC(CC)[C@@H](N[*:1])C(=O)[*:2]; 2Thi = N[C@@H](Cc1cccs1)C(=O)O; Cha = N[C@@H](CC1CCCCC1)C(=O)O; Orn = NCCC[C@H](N)C(=O)O

Sequence of human plasma kallikrein (HPK) (P03952 20-638): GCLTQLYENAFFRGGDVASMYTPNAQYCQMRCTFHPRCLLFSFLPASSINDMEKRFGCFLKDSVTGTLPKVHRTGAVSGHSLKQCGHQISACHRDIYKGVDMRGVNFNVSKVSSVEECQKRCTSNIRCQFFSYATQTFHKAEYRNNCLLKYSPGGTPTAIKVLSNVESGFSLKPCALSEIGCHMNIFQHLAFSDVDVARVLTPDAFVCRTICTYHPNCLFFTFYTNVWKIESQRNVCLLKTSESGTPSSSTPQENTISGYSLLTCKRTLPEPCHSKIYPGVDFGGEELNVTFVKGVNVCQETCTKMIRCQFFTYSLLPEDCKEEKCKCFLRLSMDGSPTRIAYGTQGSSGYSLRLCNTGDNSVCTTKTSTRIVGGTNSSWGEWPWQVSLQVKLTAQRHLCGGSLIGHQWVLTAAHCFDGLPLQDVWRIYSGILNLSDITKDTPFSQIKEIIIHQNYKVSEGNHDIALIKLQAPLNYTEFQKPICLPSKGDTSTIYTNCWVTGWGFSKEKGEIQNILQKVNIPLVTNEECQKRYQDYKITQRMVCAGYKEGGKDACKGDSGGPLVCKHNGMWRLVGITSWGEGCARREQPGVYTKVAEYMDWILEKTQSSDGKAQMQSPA
T1 sequence (P06870 25-262): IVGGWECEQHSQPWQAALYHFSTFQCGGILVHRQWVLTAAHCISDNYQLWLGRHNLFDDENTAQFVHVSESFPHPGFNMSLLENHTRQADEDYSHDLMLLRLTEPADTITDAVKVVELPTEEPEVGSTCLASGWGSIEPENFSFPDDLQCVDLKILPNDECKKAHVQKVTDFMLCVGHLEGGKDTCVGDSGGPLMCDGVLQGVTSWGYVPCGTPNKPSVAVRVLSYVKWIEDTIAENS
Sequence of porcine pancreatic kallikrein (PPK) (P00752 8-87 limits assumed): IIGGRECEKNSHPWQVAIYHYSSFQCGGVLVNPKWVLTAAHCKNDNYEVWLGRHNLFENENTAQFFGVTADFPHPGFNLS
Sequence of porcine pancreatic kallikrein (PPK) (P00752 95-246 limits assumed): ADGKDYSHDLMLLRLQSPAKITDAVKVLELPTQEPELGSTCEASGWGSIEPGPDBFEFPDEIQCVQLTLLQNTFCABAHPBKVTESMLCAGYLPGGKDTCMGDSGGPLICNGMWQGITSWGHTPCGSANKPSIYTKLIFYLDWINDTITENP

With `CC(C)[C@H](NC(=O)[C@H](CO)NC(=O)[C@H](CCCNC(=N)N)NC(=O)[C@H](Cc1cccs1)NC(=O)[C@@H]1CCCN1)C(=O)N[C@@H](CCC(N)=O)C(N)=O` [KCH-4] (H-P[2Thi]RSVQ-NH2), the Ki was 249 µM in series [1] (setting [5]), 0.497 mM in series [2] (setting [6]) and 0.109 mM in series [3] (setting [7]).

As to `CC(C)[C@H](NC(=O)[C@H](CO)NC(=O)[C@H](CCCNC(=N)N)NC(=O)[C@H](Cc1ccc2ccccc2c1)NC(=O)[C@@H]1CCCN1)C(=O)N[C@@H](CCC(N)=O)C(N)=O` [KCH-6] (H-P[2Nal]RSVQ-NH2), the values for the Ki in series [1] (setting [5]), in series [2] (setting [6]) and in series [3] (setting [7]) were 114 µM, 0.665 mM and 0.133 mM, respectively.

With `CC(C)[C@H](NC(=O)[C@H](CO)NC(=O)[C@H](CCCNC(=N)N)NC(=O)[C@H](Cc1cccc2ccccc12)NC(=O)[C@@H]1CCCN1)C(=O)N[C@@H](CCC(N)=O)C(N)=O` [KCH-7] (H-P[1Nal]RSVQ-NH2), the values for the Ki in series [1] (setting [5]), in series [2] (setting [6]) and in series [3] (setting [7]) were 41 µM, 0.516 mM and 0.13 mM, respectively.

Consider `CC(C)[C@H](NC(=O)[C@H](CO)NC(=O)[C@H](CCCNC(=N)N)NC(=O)[C@H](CC1CCCCC1)NC(=O)[C@@H]1CCCN1)C(=O)N[C@@H](CCC(N)=O)C(N)=O` [KCH-10] (H-P[Cha]RSVQ-NH2), for which the figures for the Ki in series [1] (setting [5]), in series [2] (setting [6]) and in series [3] (setting [7]) were 92 µM, 0.813 mM and 0.085 mM, respectively.

For `CC(C)[C@H](NC(=O)[C@H](CO)NC(=O)[C@H](CCCCN)NC(=O)[C@H](Cc1ccccc1)NC(=O)[C@@H]1CCCN1)C(=O)N[C@@H](CCC(N)=O)C(N)=O` [KIDZ-2, Pro-Phe-Lys-Ser-Val-Gln] (H-PFKSVQ-NH2), the Ki on urokinase (UK) is more than 20000 µM; in series [2] (Table 7, read-out: K1 HPK), 2.5 mM; in series [3] (Table 7, read-out: K1 PPK) it was 0.294 mM.

With `CC(C)[C@H](NC(=O)[C@H](CO)NC(=O)[C@H](CCCN)NC(=O)[C@H](Cc1ccccc1)NC(=O)[C@@H]1CCCN1)C(=O)N[C@@H](CCC(N)=O)C(N)=O` [KIDZ-3, Pro-Phe-Orn-Ser-Val-Gln] (H-PF[Orn]SVQ-NH2), the Ki on urokinase (UK) was more than 20000 µM; in series [2] (setting [8]), more than 5 mM; in series [3] (setting [9]), more than 5 mM.

Regarding `CC(C)[C@H](NC(=O)[C@H](CO)NC(=O)[C@H](Cc1ccc(N)cc1)NC(=O)[C@H](Cc1ccccc1)NC(=O)[C@@H]1CCCN1)C(=O)N[C@@H](CCC(N)=O)C(N)=O` [KIDZ-6, Pro-Phe-Aph-Ser-Val-Gla] (H-PF[Phe(4-NH2)]SVQ-NH2), the Ki at urokinase (UK) is more than 20000 µM; in series [1] (Table 7, read-out: K1 HUK) it was 21 µM; in series [1] (text b391, read-out: HUK KI), less than 50 µM; in series [2] (setting [8]), more than 10 mM; in series [3] (Table 7, read-out: K1 PPK), 0.036 mM; in series [3] (text b391, read-out: PPK KI), less than 0.05 mM.

As for `CC(C)[C@H](NC(=O)[C@H](CO)NC(=O)[C@H](Cc1c[nH]cn1)NC(=O)[C@H](Cc1ccccc1)NC(=O)[C@@H]1CCCN1)C(=O)N[C@@H](CCC(N)=O)C(N)=O` [KIDZ-12, Pro-Phe-His-Ser-Val-Gln] (H-PFHSVQ-NH2), the Ki on urokinase (UK) is more than 20000 µM; in series [2] (setting [8]) it was more than 20 mM; in series [3] (setting [9]), more than 1 mM.

In the case of `CSCC[C@H](NC(=O)[C@H](Cc1ccccc1)NC(=O)[C@@H]1CCCN1)C(=O)N[C@@H](CO)C(=O)N[C@H](C(=O)N[C@@H](CCC(N)=O)C(N)=O)C(C)C` [KIDZ-13, Pro-Phe-Met-Ser-Val-Gln] (H-PFMSVQ-NH2), the Ki was more than 20000 µM at urokinase (UK), more than 20 mM in series [2] (setting [8]) and more than 4 mM in series [3] (setting [9]).

As for `CC(C)[C@H](NC(=O)[C@H](CO)NC(=O)[C@H](CCCNC(=N)N)NC(=O)[C@@H](NC(=O)[C@@H]1CCCN1)[C@@H](C)O)C(=O)N[C@@H](CCC(N)=O)C(N)=O` [KIDZ-14, Pro-Thr-Arg-Ser-Val-Gln] (H-PTRSVQ-NH2), the Ki at urokinase (UK) was more than 20000 µM; in series [3] (Table 7, read-out: K1 PPK), 0.4 to 0.8 mM.

On to `CCC(CC)[C@@H](N)C(=O)N[C@@H](Cc1ccccc1)C(=O)N[C@@H](CCCNC(=N)N)C(=O)N[C@@H](CO)C(=O)N[C@H](C(=O)N[C@@H](CCC(N)=O)C(N)=O)C(C)C` [KKI-87, [D-Ile(4Me)]-Phe-Arg-Ser-Val-Gln] (H-[X2]FRSVQ-NH2; N-terminus assumed), for which the “ΔLog KO/W” value in series [4] was 1.11.

On to `CC(C)[C@H](NC(=O)[C@H](CO)NC(=O)[C@H](CCCNC(=N)N)NC(=O)[C@H](Cc1ccccc1)NC(=O)[C@H](N)C12CC3CC(CC(C3)C1)C2)C(=O)N[C@@H](CCC(N)=O)C(N)=O` [KKI-88, [D-Adg]-Phe-Arg-Ser-Val-Gln] (H-[X3]FRSVQ-NH2; N-terminus assumed), for which the “ΔLog KO/W” value in series [4] is on record as 1.88.

As for `N=C(N)NCCC[C@H](NC(=O)[C@H](CO)NC(=O)[C@H](CO)NC(=O)[C@H](CCCNC(=N)N)NC(=O)[C@H](Cc1ccccc1)NC(=O)[C@@H]1CCCN1)C(N)=O` [Pro-Phe-Arg-Ser-Ser-Arg] (H-PFRSSR-NH2), the Ki was found to be 54 µM in series [1] (Table 6, first HUK column, read-out: KI HUK); 0.49 mM in series [2] (Table 6, HUK, read-out: KI HUK); 0.06 mM in series [3] (Table 6, read-out: KI PPK).

As to Pro-Map-Aph-Ser-Val-Gln [KIDZ-15], the Ki on urokinase (UK) is more than 20000 µM; in series [2] (setting [8]), more than 20 mM; in series [3] (Table 7, read-out: K1 PPK), 0.11 mM. Moreover, the “selectivity for tissue kallikrein over plasma kallikrein or urokinase” value in series [3] (Table 7) is reported as “selectivity for tissue kallikrein over plasma kallikrein or urokinase”.
